Source: publication PMC9074879, “Solubilization, purification, and ligand binding characterization of G protein-coupled receptor SMO in native membrane bilayer using styrene maleic acid copolymer” (PeerJ, 2022)

Target: T1, Smoothened (SMO) (Homo sapiens, UniProt Q99835)
T1 construct: human SMO transmembrane domain (residues 190-555) fused with N-terminal 10-His tag and thermostabilized apocytochrome b562RIL, in SMA-nanodiscs
T1 sequence (Q99835 190-555): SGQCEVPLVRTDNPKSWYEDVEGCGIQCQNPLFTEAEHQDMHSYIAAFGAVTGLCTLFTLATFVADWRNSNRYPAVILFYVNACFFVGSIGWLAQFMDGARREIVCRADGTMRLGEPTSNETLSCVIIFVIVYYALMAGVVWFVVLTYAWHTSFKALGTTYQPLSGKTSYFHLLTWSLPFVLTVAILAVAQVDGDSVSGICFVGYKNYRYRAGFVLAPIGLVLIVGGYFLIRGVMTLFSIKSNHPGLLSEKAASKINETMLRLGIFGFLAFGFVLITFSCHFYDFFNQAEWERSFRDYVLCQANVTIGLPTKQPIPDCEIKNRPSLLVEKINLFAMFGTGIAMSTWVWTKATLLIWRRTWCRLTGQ
Assay: ligand-observed 1D 1H NMR titration (line broadening), purified SMO in SMA-nanodiscs
Type: binding

Kd	Compound
2.3 ± 1.2 nM	Cc1nn(-c2ccccc2)c(C)c1/C=N/N1CCN(Cc2ccccc2)CC1 [SANT-1]
15.9 ± 4.4 nM	CN[C@H]1CC[C@H](N(Cc2cccc(-c3ccncc3)c2)C(=O)c2sc3ccccc3c2Cl)CC1 [SAG]
